According to publication PMC3695085, “Screening and Improving the Recombinant Nitrilases and Application in Biotransformation of Iminodiacetonitrile to Iminodiacetic Acid” (PLoS ONE, 2013):

Legend:
Format in all cases: biochemical
GpN = target: T1, GpN (Aeribacillus pallidus, UniProt Q0PIV8); assay: GC-FID of ADPN consumed; details: pH […] potassium phosphate, […] °C, […] min
T1 construct: full-length, pET-28b(+), His-tag (Ni-NTA), E. coli BL21(DE3)
T1 sequence (Q0PIV8 1-323): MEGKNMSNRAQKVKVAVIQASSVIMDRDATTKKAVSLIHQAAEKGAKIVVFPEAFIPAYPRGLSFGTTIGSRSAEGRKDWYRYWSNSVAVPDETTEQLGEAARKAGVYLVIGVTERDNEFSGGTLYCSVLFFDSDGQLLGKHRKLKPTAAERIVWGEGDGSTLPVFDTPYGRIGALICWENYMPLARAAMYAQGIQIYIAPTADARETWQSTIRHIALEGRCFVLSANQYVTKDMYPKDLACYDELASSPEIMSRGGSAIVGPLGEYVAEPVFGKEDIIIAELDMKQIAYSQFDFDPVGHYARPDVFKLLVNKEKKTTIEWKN

RjN = target: T2, RjN (Rhodococcus rhodochrous, UniProt Q03217); assay: GC-FID of ADPN consumed; details: 50 mM ADPN, pH 7.5, 50 mM potassium phosphate, 35 °C, 30 min
T2 construct: gene nitA; full-length, pET-28b(+), His-tag (Ni-NTA), E. coli BL21(DE3)
T2 sequence (Q03217 1-366 limits assumed): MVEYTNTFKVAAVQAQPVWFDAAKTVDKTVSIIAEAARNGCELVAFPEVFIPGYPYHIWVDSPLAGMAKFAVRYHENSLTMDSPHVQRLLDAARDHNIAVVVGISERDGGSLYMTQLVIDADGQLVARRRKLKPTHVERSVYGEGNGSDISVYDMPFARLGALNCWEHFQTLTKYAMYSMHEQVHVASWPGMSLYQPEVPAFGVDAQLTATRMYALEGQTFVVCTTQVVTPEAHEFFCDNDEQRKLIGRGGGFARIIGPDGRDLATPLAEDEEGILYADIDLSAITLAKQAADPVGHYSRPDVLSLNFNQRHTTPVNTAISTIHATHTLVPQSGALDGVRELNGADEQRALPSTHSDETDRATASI

TpN = target: T3, TpN (Thalassiosira pseudonana, UniProt B8C1M9); assay: GC-FID of ADPN consumed; details: 50 mM ADPN, pH 7.5, 50 mM potassium phosphate, 35 °C, 30 min
T3 construct: gene NIT2; full-length, pET-28b(+), His-tag (Ni-NTA), E. coli BL21(DE3)

ApN = target: T4, ApN (Arthrobacter pascens, UniProt E1CJF8); assay: GC-FID of ADPN consumed; details: 50 mM ADPN, pH 7.5, 50 mM potassium phosphate, 35 °C, 30 min
T4 construct: gene inhB; full-length, pET-28b(+), His-tag (Ni-NTA), E. coli BL21(DE3)
T4 sequence (E1CJF8 1-359): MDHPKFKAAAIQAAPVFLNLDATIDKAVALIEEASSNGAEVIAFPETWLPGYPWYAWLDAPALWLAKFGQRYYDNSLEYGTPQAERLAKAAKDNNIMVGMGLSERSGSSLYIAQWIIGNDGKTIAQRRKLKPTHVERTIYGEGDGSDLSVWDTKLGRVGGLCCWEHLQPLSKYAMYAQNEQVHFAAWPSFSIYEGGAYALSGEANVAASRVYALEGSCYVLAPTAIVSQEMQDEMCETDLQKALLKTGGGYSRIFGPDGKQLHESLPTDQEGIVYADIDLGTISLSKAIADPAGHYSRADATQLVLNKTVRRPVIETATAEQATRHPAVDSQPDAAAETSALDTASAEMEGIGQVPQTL

AcN = target: T5, AcN (Acidovorax facilis, UniProt Q1W2L4); assay: initial velocity, HPLC, Michaelis-Menten fit; details: pH 7.5, 50 mM potassium phosphate, 35 °C; unit printed as mM^−1 (mM meant); 10.5–262.5 mM substrate
T5 construct: gene nitA; full-length, pET-28b(+), His-tag (Ni-NTA), E. coli BL21(DE3); synthesised gene
Source text: initial velocity, HPLC, Michaelis-Menten fit on AcN

| SMILES | GC-FID of ADPN consumed (GpN) | GC-FID of ADPN consumed (RjN) | GC-FID of ADPN consumed (TpN) | GC-FID of ADPN consumed (ApN) | Km mM^-1 (AcN) [mM⁻¹] |
| --- | --- | --- | --- | --- | --- |
| N#CCCCCC#N [adiponitrile] | All nitrilases demonstrated ADPN hydrolysis activity | All nitrilases demonstrated ADPN hydrolysis activity | All nitrilases demonstrated ADPN hydrolysis activity | All nitrilases demonstrated ADPN hydrolysis activity | – |
| N#CCNCC#N [iminodiacetonitrile] | – | – | – | – | 0.76 ± 0.02 |
